Patent US5439902A, “14α, 16α-ethanoand 14α, 16α-etheno-estratrienes” (Schering Aktiengesellschaft, priority 1991, dated 1995)

Key:
vaginal epithelium = assay: Allen-Doisy test (vaginal smears, threshold at which 50% of the animals reach stage 3); format: in vivo, ovariectomized rats; details: for Allen-Doisy Test p.o. [ED50] / Allen-Doisy Test s.c. [ED50]: ovariectomized rats, one-time administration d1, smears d3-d5
Method: In the Allen-Doisy test, an evaluation of vaginal smears in ovariectomized rats is performed on days 3-5 (d3-d5) after the one-time administration on day 1 (d1) of the test substance. The following cycle stages are distinguished:
1=diestrus (leukocytes and nucleated epithelial cells),
2=proestrus (nucleated epithelial cells),
3=estrus (denucleated horny plaques),
4=metestrus (denucleated horny plaques, leukocytes, epithelial cells).
After oral or subcutaneous administration, estrogenically active substances result in the proliferation of the vaginal epithelium and the hornification of superficial cell layers. As a threshold value, that amount of an estrogen is indicated in which 50% of the animals reach stage 3. Further, estrogens cause an increase of the uterus weight.

Estrogen-receptor = Estrogen-receptor test (KF); format: binding; details: estradiol = 1.0

Row | Structure (SMILES) | Allen-Doisy Test p.o. [ED50] (vaginal epithelium) | threshold value (50% of the animals reach stage 3) (vaginal epithelium; s.c., rat, FIG. 1, threshold already exceeded after only 0.3 μg) [µg] | Allen-Doisy Test s.c. [ED50] (vaginal epithelium; s.c.) | Estrogen-receptor test (KF) (Estrogen-receptor)
1 | C[C@]12CC[C@@H]3c4ccc(O)cc4CC[C@H]3[C@@]13CC[C@H](C3)[C@H]2O [14α,16α-ethano-estra-1,3,5(10)-triene-3,17α-diol] | 3-10 μg/animal/day | < 0.3 | 0.1-0.3 μg/animal/day | 0.5
2 | C[C@]12CC[C@@H]3c4ccc(O)cc4CC[C@H]3[C@@]13CC[C@H](C3)[C@@H]2O [14α,16α-ethano-estra-1,3,5(10)-triene-3,17β-diol] | 1.0 μg/animal/day | – | 0.1-0.3 μg/animal/day | 1.0
3 | C[C@]12CC[C@@H]3c4ccc(O)cc4CC[C@H]3[C@@]13C=C[C@H](C3)[C@H]2O [14α,16α-etheno-estra-1,3,5(10)-triene-3,17α-diol] | – | – | – | 1.5
4 | C[C@]12CC[C@@H]3c4ccc(O)cc4CC[C@H]3[C@@H]1CC[C@H]2O [17α-Estradiol, reference compound] | – | – | – | 46.0
5 | C[C@]12CC[C@@H]3c4ccc(O)cc4CC[C@H]3[C@@H]1CC[C@@H]2O [Estradiol, reference compound] | – | – | – | 1.0
